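Interpolation was linear, between the two tested concentrations surrounding the appropriate level; five concentrations were tested over 48 hours in 96-well plates. At the GI50, growth is halved.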 Calls of active or inactive are those of the source. No stated cut-off is given here; in the data, active = GI50 up to about 1.1 µM and inactive = higher.
How the values were obtained:
Test in all cases: growth of human tumour cells (NCI), 48 h
MDA-MB-435 = test system: MDA-MB-435
UACC-257 = test system: UACC-257
HCC 2998 = test system: HCC 2998
M14 = test system: M14
MDA-N = test system: MDA-N
NCI-H522 = test system: NCI-H522
SF-295 = test system: SF-295
KM12 = test system: KM12
A549 = test system: A549
786-0 = test system: 786-0
SK-MEL-2 = test system: SK-MEL-2
U-251 = test system: U-251
DU-145 = test system: DU-145
SNB-75 = test system: SNB-75
MCF7 = test system: MCF7
HT-29 = test system: HT-29
Malme-3M = test system: Malme-3M
HCT-15 = test system: HCT-15
SR = test system: SR
HL-60 = test system: HL-60

Measured: GI50

CN(C)CCn1c(=O)c2ccc(NCCCN(C)CCCNc3ccc4c(=O)n(CCN(C)C)c(=O)n5c6ccc(O)cc6c(=O)c3c45)c3c(=O)c4cc(O)ccc4n(c1=O)c23
active: MDA-MB-435 < 0.01 µM | UACC-257 0.181 µM | HCC 2998 < 0.0151 µM | M14 0.147 µM | MDA-N < 0.0337 µM | NCI-H522 < 0.01 µM | SF-295 < 0.01 µM | KM12 < 0.01 µM | A549 < 0.01 µM | 786-0 < 0.01 µM | SK-MEL-2 0.0335 µM | U-251 < 0.01 µM | DU-145 < 0.01 µM | SNB-75 < 0.01 µM | MCF7 < 0.01 µM | HT-29 < 0.01 µM | Malme-3M 0.0659 µM | SR < 0.01 µM | HL-60 0.0342 µM
< 0.0173 µM: HCT-15

COc1ccc(/C=C(\C#N)c2nc3ccccc3c(=O)[nH]2)cc1
54.5 µM: HCT-15
inactive: MDA-MB-435 > 100 µM | UACC-257 68.7 µM | HCC 2998 49.5 µM | M14 30 µM | MDA-N > 100 µM | NCI-H522 10.6 µM | SF-295 20.5 µM | KM12 51.5 µM | A549 45.9 µM | 786-0 13.9 µM | SK-MEL-2 27.3 µM | U-251 9.42 µM | DU-145 23.1 µM | SNB-75 23.9 µM | MCF7 34.4 µM | HT-29 > 100 µM | Malme-3M > 100 µM | SR 39.4 µM | HL-60 > 100 µM

CC(C)OC(=O)c1ccc(CCc2cc(O)c(Br)cc2O)cc1
inactive: MDA-MB-435 8.11 µM | UACC-257 13.6 µM | HCC 2998 16.1 µM | M14 15.6 µM | MDA-N 9.55 µM | NCI-H522 6.24 µM | SF-295 17.3 µM | KM12 6.56 µM | A549 20.3 µM | 786-0 12 µM | SK-MEL-2 13.1 µM | U-251 7.48 µM | DU-145 14.4 µM | SNB-75 21 µM | MCF7 11.7 µM | HT-29 18.7 µM | Malme-3M 17.2 µM | SR 23.7 µM | HL-60 5.85 µM
6.18 µM: HCT-15

COC(=O)C1=C(OC(=O)/C(=C/c2ccc(Cl)cc2Cl)c2ccc(Cl)cc2Cl)C(C(=O)OC)[C@@]2(O)[C@@H](C(=O)OC)[C@H](C)C[C@@H]1[C@@H]2C(=O)OC (stereo not given in full)
inactive: MDA-MB-435 > 100 µM | UACC-257 > 100 µM | HCC 2998 > 100 µM | M14 > 100 µM | MDA-N > 100 µM | NCI-H522 64.1 µM | SF-295 16.5 µM | KM12 > 100 µM | A549 13.5 µM | 786-0 > 100 µM | SK-MEL-2 > 100 µM | U-251 > 100 µM | DU-145 > 100 µM | SNB-75 > 100 µM | MCF7 > 100 µM | HT-29 > 100 µM | Malme-3M > 100 µM | SR > 100 µM | HL-60 > 100 µM
> 100 µM: HCT-15

CC#CC#C/C=C1/C=CC2(CCCCO2)O1 (stereo not given)
inactive: MDA-MB-435 > 100 µM | UACC-257 > 100 µM | HCC 2998 > 100 µM | M14 > 100 µM | MDA-N > 100 µM | NCI-H522 40.1 µM | SF-295 > 100 µM | KM12 > 100 µM | A549 > 100 µM | 786-0 > 100 µM | SK-MEL-2 > 100 µM | U-251 > 100 µM | DU-145 > 100 µM | SNB-75 > 100 µM | MCF7 94.4 µM | HT-29 > 100 µM | Malme-3M > 100 µM | SR 35.6 µM | HL-60 19.5 µM
56.8 µM: HCT-15
